What all share (type): physicochemical
Data set [1] can be described thus: Fluorescence spectrum / quantum efficiency of fluorescence (ICG in DMSO as standard). Particulars: both water and organic solvents; excitation 760 nm. The method, then:
The absorption spectra and fluorescence spectra (excitation wavelength 760 nm) of […] PBS, methanol, DMF, and chloroform solutions of comparative compound 1 (each containing 0.1% DMSO as cosolvent) were measured.

Data set [2] in a line: Absorption spectrum measurement. Particulars: for Λabs. max: 0.1% DMSO as cosolvent; for maximum absorption wavelength: PBS (1% DMSO). The method, then:
The absorption spectrum of a […] PBS solution of comparative compound 2 (containing 0.1% DMSO as cosolvent) was measured.
The maximum absorption wavelength of compound 1 was 763 nm, and the maximum absorption wavelength of compound 4 was 732 nm.

Data set [3] is described as follows: Changes over time in the absorption spectrum in water (PBS). The note with it: PBS solution, 0.1% DMSO as cosolvent.

`Cc1ccccc1C1=C2C=C/C(=[N+]3/CCc4ccccc43)C=C2[Si](C)(C)c2cc(N3CCc4ccccc43)ccc21` [comparative compound 1, 2-Me-Si-QSY21]: the fluorescence quantum yield in data set [1] is reported as at most 0.001. The “absorption spectrum reached up to” value in data set [2] is on record as “up to 850 nm”. Besides, the Λabs. max is listed as 790 nm in data set [2] (Chloroform), 790 nm in data set [2] (DMF), 779 nm in data set [2] (MeOH) and 764 nm in data set [2] (PBS).
For the compound `Cc1ccccc1C1=C2C=C/C(=[N+]3/CCc4cc(S(=O)(=O)O)ccc43)C=C2[Si](C)(C)c2cc(N3CCc4cc(S(=O)(=O)O)ccc43)ccc21` [comparative compound 2, 2-Me-SO3H—Si-QSY21], the “changes over time in absorption in water (stability in water)” value (shortened to “changes over time in absorption in water”) in data set [3] is “a gradual decrease in absorption was observed in water”. Further, the “change in absorption wavelength due to introduction of a sulfone group” value in data set [2] (PBS solution, 0.1% DMSO) is on record as “no change in absorption wavelength”.
Regarding `Cc1cccc(C)c1C1=C2C=C/C(=[N+]3/CCc4cc(S(=O)(=O)O)ccc43)C=C2[Si](C)(C)c2cc(N3CCc4cc(S(=O)(=O)O)ccc43)ccc21` [compound 1, 2,6-diMe-SO3H Indoline-Si-QSY21], the “changes over time in absorption in water” value in data set [3] was “no decrease in absorption in water was observed”. Also, the maximum absorption wavelength in data set [2] came to 763 nm.
For the compound `COc1cccc(OC)c1C1=C2C=C/C(=[N+]3/CCc4cc(S(=O)(=O)O)ccc43)C=C2[Si](C)(C)c2cc(N3CCc4cc(S(=O)(=O)O)ccc43)ccc21` [compound 2, 2,6-diOMe-SO3H Indoline-Si-QSY21], the “changes over time in absorption in water” value in data set [3] was “no decrease in absorption in water was observed”.
`Cc1cccc(C)c1C1=C2C=C/C(=[N+]3/CCCc4cc(S(=O)(=O)O)ccc43)C=C2[Si](C)(C)c2cc(N3CCCc4cc(S(=O)(=O)O)ccc43)ccc21` [compound 4, 2,6-diMe-SO3H Tetrahydroquinoline-Si-QSY21] had a maximum absorption wavelength in data set [2] of 732 nm.
